The record followed here is patent US20100196311A1, “METHODS AND COMPOSITIONS CONTAINING mTOR INHIBITORS FOR ENHANCING IMMUNE RESPONSES” (priority 2009, published 2010).

The test system of one test is T-bet. As to the kind of experiment: T-bet mRNA and protein expression in OT-I cells. The format is cell-based, mouse. How it is done: FIG. 4. IL-12-Enhanced mTOR Phosphorylation Is Essential for T-bet-Determined Type I Effector Maturation of CD8^+ T Cells. (A-C) OT-I cells stimulated with Ag+B7.1 (±) IL-12 and rapamycin were evaluated for (A) mRNA for T-bet at the indicated time points by RT-PCR, (B) T-bet protein expression at the indicated time-points by ICS, and (C) T-bet protein expression by ICS before and after antigen recall. **p<0.0035; ***p<0.0005. (D) WT and Tbx21^−1− OT-I cells were stimulated with Ag+B7.1 (±) IL-12 and evaluated for IFN-γ production at the primary and secondary phase. ***p<0.0001. (E and F) OT-I cells stimulated with Ag+B7.1 (±) IL-12 and rapamycin were transduced with T-bet-ER retroviral vector (±) 4-HT (10 nM) and evaluated by ICS for (E) T-bet protein expression by ICS and (F) IFN-γ at secondary phase (168 hr). (G and H) OT-I cells stimulated with Ag+B7.1 (±) insulin (1 U/ml) and rapamycin were evaluated by ICS for (G) S6K phosphorylation at 48 hr and (H) T-bet expression at 72 hr. Experiments shown are representative of at least three (A, B, D, E, and F) and two (C, G, and H) independent experiments with similar outcomes. (Data are presented as mean±SEM).
Retroviral Transduction and T-Bet Induction. T-bet-ER RV (Estrogen Responsive Retro Viral Vector) was cotransfected into Platinum-E cells together with the retroviral packaging vector pCL-Eco using LipoD293 DNA in vitro transfection reagent (SignaGen Laboratories) following the manufacturer's instructions. The medium was replaced the following day, and retroviral supernatant was collected 3 days after transfection. For transduction, naive OT-I cells stimulated for 24 hr, were suspended in retroviral supernatant containing polybrene (8 μg/ml; Sigma-Aldrich), and were spin-transduced at 2200 rpm for 90 min at 30° C. After spin-transduction, cells were cultured in fresh medium containing the same polarizing milieu as before, along with the addition of 4-HT (10 nM). At the end of 72 hr after initial stimulation, cells were washed thrice and maintained in the absence of any stimulation but in the presence of 4-HT and IL-7 (10 ng/ml).
Because the sustained expression of T-bet is necessary and sufficient for imprinting type I effector cell fate (Matsuda et al., 2007) and mTOR inhibition reversed IL-12 imprinted type I effector maturation in OT-I cells (FIG. 3), we next sought to determine whether rapamycin treatment affects T-bet expression in OT-I cells by performing kinetic analysis of T-bet mRNA expression (FIG. 4A). […] Moreover, inhibition of mTOR activity at 12 hr was also able to achieve loss in T-bet expression, similar to the observed loss in type I effector maturation (FIG. 3E).

In another test the test system is Eomesodermin. Description: Eomesodermin mRNA and protein expression in OT-I cells. In kind it is cell-based, mouse. How it is done: FIG. 5. Inhibition of mTOR Promotes Persistent Eomes Expression and Phenotypic Markers of Memory in CD8+T Cells. (A and B) OT-I cells stimulated with Ag+B7.1 (±) IL-12 and rapamycin were evaluated for (A) mRNA for Eomes at the indicated time points by RT-PCR and (B) Eomes protein expression at 72 hr by ICS. *p<0.03. (C) OT-I cells stimulated with Ag+B7.1 (±) IL-12 and rapamycin were transduced with T-bet-ER retroviral vector (±) 4-HT (10 nM) and evaluated for Eomes protein expression at 96 hr. (D) OT-I cells stimulated with Ag+B7.1 (±) IL-12 and rapamycin were evaluated for CD62L, CD69, KLRG1, CD127, and CD122 expression at 72 hr. (E) Bcl-2 and Bcl-3 mRNA expression at the indicated time points. (F and G) OT-I cells stimulated with Ag+B7.1 (±) IL-12 and rapamycin for 72 hr were washed twice and rested for an additional 72 hr in the presence of (F) IL-7 (10 ng/ml), *p<0.02, and (G) IL-15 (10 ng/ml). *p<0.02 and percent (%) cell recovery was calculated at 144 hr. […]
The closely related transcription factors T-bet and Eomesodermin are inversely regulated in effector and memory CD8^+T cells. To determine whether mTOR inhibition, which curtailed T-bet expression, led to induction of Eomesodermin, we systematically analyzed Eomesodermin mRNA expression in OT-I cells. […] We also determined whether IFN-α could also regulate mTOR activity and T-bet expression in OT-I cells.

[1] abbreviates: IFN-α, Ag+B7.1-stimulated OT-I cells.

Take IFN-α: the T-bet expression entry in the test with T-bet (setting [1]) is listed as “unable to enhance”. The Eomesodermin expression result in the test on Eomesodermin (setting [1]) is “increases”.

B1: IL-12: interleukin-12, cytokine (signal 3) (protein, UniProt P43431 23-215; P43432 23-335, looked up)
Interleukin-12 subunit alpha: RVIPVSGPARCLSQSRNLLKTTDDMVKTAREKLKHYSCTAEDIDHEDITRDQTSTLKTCLPLELHKNESCLATRETSSTTRGSCLPPQKTSLMMTLCLGSIYEDLKMYQTEFQAINAALQNHNHQQIILDKGMLVAIDELMQSLNHNGETLRQKPPVGEADPYRVKMKLCILLHAFSTRVVTINRVMGYLSSA
Interleukin-12 subunit beta: MWELEKDVYVVEVDWTPDAPGETVNLTCDTPEEDDITWTSDQRHGVIGSGKTLTITVKEFLDAGQYTCHKGGETLSHSHLLLHKKENGIWSTEILKNFKNKTFLKCEAPNYSGRFTCSWLVQRNMDLKFNIKSSSSSPDSRAVTCGMASLSAEKVTLDQRDYEKYSVSCQEDVTCPTAEETLPIELALEARQQNKYENYSTSFFIRDIIKPDPPKNLQMKPLKNSQVEVSWEYPDSWSTPHSYFSLKFFVRIQRKKEKMKETEEGCNQKGAFLVEKTSTEVQCKGGNVCVQAQDRYYNSSCSKWACVPCRVRS
Take B1: the “Ag+B7.1-induced T-bet expression” value in the test with T-bet (IL-12 addition, 24-96 hr) is “enhanced and sustained”. In the test with Eomesodermin (IL-12 addition to Ag+B7.1 stimulation), the Eomesodermin expression entry is “reduced”.
